These results are taken from patent US20100204265A1 (priority 2009, published 2010).

System in one data set: not given
Assay: not given
As to conditions: patients treated at currently recommended doses; cited from earlier work.
With `NC(=O)c1ncn([C@@H]2O[C@H](CO)[C@@H](O)[C@H]2O)n1` [Ribavirin, 1-P-D-ribofuranosyl-1H-1,2,-4-triazole-3-carboxamide], the “significant hemolysis, share of patients” value is recorded as 10-20%.

Another data set has as its system ET (Huh-lucubineo-ET) cell line harboring I389luc-ubi-neo/NS3-3′/ET HCV replicon. Nature of the data set: Replicon assay (HCV replicon, luciferase readout). Format: cell-based. As to conditions: Hepatitis C virus. An outline of the steps: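 Compounds at 10-point 2-fold dilutions (overall 0.1 nM to […], 0.5% DMSO) were applied to ET cells carrying a luciferase-neo HCV replicon, seeded a day earlier. After 48-72 hours, luciferase-based % inhibition was fitted with a Hill equation for EC50, and parallel WST-1 readings gave TC50.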
Consider `CNC(=O)CNC(=O)Cc1cn2cc(-c3ccoc3)cc(C(F)(F)F)c2n1` [Compound 301, 2-(6-Furan-3-yl-8-trifluoromethyl-imidazo[1,2-a]pyridin-2-yl)-N-methylcarbamoylmethyl-acetamide], for which the EC50 (commonly the concentration at which the effect is half-maximal) is greater than 50 µM.

Consider `CN(C)C(=O)CNC(=O)Cc1cn2cc(-c3ccoc3)cc(C(F)(F)F)c2n1` [Compound 302, N-Dimethylcarbamoylmethyl-2-(6-furan-3-yl-8-trifluoromethyl-imidazo[1,2-a]pyridin-2-yl)-acetamide], for which the EC50 is greater than 50 µM.

With `NC(=O)[C@H](Cc1c[nH]c2ccccc12)NC(=O)Cc1cn2cc(-c3ccoc3)cc(C(F)(F)F)c2n1` [Compound 303, 2-[2-(6-Furan-3-yl-8-trifluoromethyl-imidazo[1,2-a]pyridin-2-yl)-acetylamino]-3-(1H-indol-3-yl)-propionamide], the EC50 was greater than 50 µM.

Take `COC(=O)C(C)NC(=O)Cc1cn2cc(-c3ccoc3)cc(C(F)(F)F)c2n1` (stereo not drawn) [Compound 304, 2-[2-(6-Furan-3-yl-8-trifluoromethyl-imidazo[1,2-a]pyridin-2-yl)-acetylamino]-propionic acid methyl ester]: the EC50 was greater than 50 µM.

`COC(=O)C(NC(=O)Cc1cn2cc(-c3ccoc3)cc(C(F)(F)F)c2n1)C(C)O` (stereo not drawn) [Compound 305, 2-[2-(6-Furan-3-yl-8-trifluoromethyl-imidazo[1,2-a]pyridin-2-yl)-acetylamino]-3-hydroxy-butyric acid methyl ester] gave an EC50 greater than 50 µM.

Regarding `COC(=O)C(CC(C)C)NC(=O)Cc1cn2cc(-c3ccoc3)cc(C(F)(F)F)c2n1` (stereo not drawn) [Compound 306, 2-[2-(6-Furan-3-yl-8-trifluoromethyl-imidazo[1,2-a]pyridin-2-yl)-acetylamino]-4-methyl-pentanoic acid methyl ester], the EC50 is greater than 50 µM.

Take `COC(=O)C1CCCN1C(=O)Cc1cn2cc(-c3ccoc3)cc(C(F)(F)F)c2n1` (stereo not drawn) [Compound 307, 1-[2-(6-Furan-3-yl-8-trifluoromethyl-imidazo[1,2-a]pyridin-2-yl)-acetyl]-pyrrolidine-2-carboxylic acid methyl ester]: the EC50 is greater than 50 µM.

As to `COC(=O)C(NC(=O)Cc1cn2cc(-c3ccoc3)cc(C(F)(F)F)c2n1)c1ccccc1` (stereo not drawn) [Compound 309, [2-(6-Furan-3-yl-8-trifluoromethyl-imidazo[1,2-a]pyridin-2-yl)-acetylamino]-phenyl-acetic acid methyl ester], the EC50 was greater than 50 µM.

In the case of `COC(=O)C(NC(=O)Cc1cn2cc(-c3ccoc3)cc(C(F)(F)F)c2n1)C(C)C` (stereo not drawn) [Compound 310, 2-[2-(6-Furan-3-yl-8-trifluoromethyl-imidazo[1,2-a]pyridin-2-yl)-acetylamino]-3-methyl-butyric acid methyl ester], the EC50 is greater than 50 µM.

Molecule `COC(=O)C(Cc1c[nH]c2ccccc12)NC(=O)Cc1cn2cc(-c3ccoc3)cc(C(F)(F)F)c2n1` (stereo not drawn) [Compound 311, 2-[2-(6-Furan-3-yl-8-trifluoromethyl-imidazol[1,2-a]pyridin-2-yl)-acetylamino]-3-(1H-indol-3-yl)-propionic acid methyl ester] yielded an EC50 greater than 50 µM.

For `COC(=O)C(Cc1ccccc1)NC(=O)Cc1cn2cc(-c3ccoc3)cc(C(F)(F)F)c2n1` (stereo not drawn) [Compound 312, 2-[2-(6-Furan-3-yl-8-trifluoromethyl-imidazo[1,2-a]pyridin-2-yl)-acetylamino]-3-phenyl-propionic acid methyl ester], the half-maximal effective concentration (EC50) is greater than 50 µM.

On to `NC(=O)[C@H]1CCCN1C(=O)Cc1cn2cc(-c3ccoc3)cc(C(F)(F)F)c2n1` [Compound 313, 1-[2-(6-Furan-3-yl-8-trifluoromethyl-imidazo[1,2-a]pyridin-2-yl)-acetyl]-pyrrolidine-2-carboxylic acid amide], for which the EC50 was greater than 50 µM.

`CN(C)C(=O)[C@H]1CCCN1C(=O)Cc1cn2cc(-c3ccoc3)cc(C(F)(F)F)c2n1` [Compound 314, 1-[2-(6-Furan-3-yl-8-trifluoromethyl-imidazo[1,2-a]pyridin-2-yl)-acetyl]-pyrrolidine-2-carboxylic acid dimethylamide] registered an EC50 greater than 50 µM.

In turn, `CS(=O)(=O)NC1CCN(C(=O)c2nc3c(C(F)(F)F)cc(-c4ccoc4)cn3c2Cl)CC1` [Compound 322, N-[1-(3-Chloro-6-furan-3-yl-8-trifluoromethyl-imidazo[1,2-a]pyridine-2-carbonyl)-piperidin-4-yl]-methanesulfonamide] registered an EC50 of 0.266 µM.

In the case of `CC(=O)NC1CCN(C(=O)c2nc3c(C(F)(F)F)cc(-c4ccoc4)cn3c2Cl)CC1` [Compound 323, N-[1-(3-Chloro-6-furan-3-yl-8-trifluoromethyl-imidazo[1,2-a]pyridine-2-carbonyl)-piperidin-4-yl]-acetamide], the EC50 turned out to be 10.7 µM.

For the molecule `O=C1CCCC2(CCN(C(=O)c3nc4c(C(F)(F)F)cc(-c5ccoc5)cn4c3Cl)CC2)N1` [Compound 324, 9-(3-Chloro-6-furan-3-yl-8-trifluoromethyl-imidazo[1,2-a]pyridine-2-carbonyl)-1,9-diaza-spiro[5.5]undecan-2-one], the EC50 is greater than 50 µM.

Take `CC(=O)N1CCCN(C(=O)c2nc3c(C(F)(F)F)cc(-c4ccoc4)cn3c2Cl)CC1` [Compound 325, 1-[4-(3-Chloro-6-furan-3-yl-8-trifluoromethyl-imidazo[1,2-a]pyridine-2-carbonyl)-[1,4]diazepan-1-yl]-ethanone]: the EC50 was greater than 50 µM.

`CS(=O)(=O)N1CCCN(C(=O)c2nc3c(C(F)(F)F)cc(-c4ccoc4)cn3c2Cl)CC1` [Compound 326, (3-Chloro-6-furan-3-yl-8-trifluoromethyl-imidazo[1,2-a]pyridin-2-yl)-(4-methanesulfonyl-[1,4]diazepan-1-yl)-methanone] yielded an EC50 of 11.4 µM.

Turning to `O=C1NC(=O)C2(CCN(C(=O)c3nc4c(C(F)(F)F)cc(-c5ccoc5)cn4c3Cl)CC2)N1` [Compound 330, 8-(3-Chloro-6-furan-3-yl-8-trifluoromethyl-imidazo[1,2-a]pyridine-2-carbonyl)-1,3,8-triaza-spiro[4.5]decane-2,4-dione], the 50% effective concentration (EC50) was greater than 50 µM.

The molecule `COC(=O)N1CCCN(C(=O)c2nc3c(C(F)(F)F)cc(-c4ccoc4)cn3c2Cl)CC1` [Compound 331, 4-(3-Chloro-6-furan-3-yl-8-trifluoromethyl-imidazo[1,2-a]pyridine-2-carbonyl)-[1,4]diazepane-1-carboxylic acid methyl ester] had an EC50 of 26.8 µM.
